Experimental data from the supplement of paper PMC10307832.

Experiments:
Test in all cases: relative viability (nuclei count vs DMSO), 5 days (fraction); higher = more cells survive
[1] = test system: UMC-11
Procedure, shortened: (§1)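 Relative viability was taken as the ratio of nuclei in treated wells to nuclei in vehicle wells. Lung cancer cell lines in 1536-well plates received compounds by pin tool one day after seeding, either one drug alone or a fixed anchor-drug dose plus five library-drug doses (not always all listed) in √10 steps. Nuclei were counted on 4× images after 5 days of treatment, and values are medians of duplicate plates.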

[2] = test system: NCI-H647
Procedure, shortened: as §1

[3] = test system: NCI-H358
Procedure, shortened: as §1

[4] = test system: ABC-1
Procedure, shortened: as §1

[5] = test system: HCC-827
Procedure, shortened: as §1

[6] = test system: NCI-H727
Procedure, shortened: as §1

[7] = test system: NCI-H2087
Procedure, shortened: as §1

[8] = test system: NCI-H661
Procedure, shortened: as §1

[9] = test system: NCI-H1651
Procedure, shortened: as §1

[10] = test system: NCI-H1975
Procedure, shortened: as §1

[11] = test system: NCI-H1437
Procedure, shortened: as §1

[12] = test system: EKVX
Procedure, shortened: as §1

[13] = test system: NCI-H520
Procedure, shortened: as §1

[14] = test system: EPLC-272H
Procedure, shortened: as §1

[15] = test system: NCI-H1792
Procedure, shortened: as §1

[16] = test system: 201T
Procedure, shortened: as §1

[17] = test system: H3255
Procedure, shortened: as §1

[18] = test system: COR-L 105
Procedure, shortened: as §1

[19] = test system: COR-L23
Procedure, shortened: as §1

[20] = test system: HCC-44
Procedure, shortened: as §1

[21] = test system: LCLC-103H
Procedure, shortened: as §1

[22] = test system: HCC-15
Procedure, shortened: as §1

O=c1[nH]c2ccccc2n1C1CCN(CCCC(c2ccc(F)cc2)c2ccc(F)cc2)CC1 [Pimozide] + Cc1nc(NC(=O)N2CCC[C@H]2C(N)=O)sc1-c1ccnc(C(C)(C)C(F)(F)F)c1 [Alpelisib] (partner 2 µM) showed a relative viability ([1]; first compound 0.08 µM) of 1.05, a relative viability ([1]; first compound 0.253 µM) of 0.967 and a relative viability ([1]; first compound 0.8 µM) of 1.05. For the same molecule, the relative viability ([1]; first compound 2.53 µM) was 1.04, the relative viability ([1]; first compound 8 µM) was 1.19 and the relative viability ([2]; first compound 0.08 µM) was 1.11. For the same molecule, the relative viability ([2]; first compound 0.253 µM) was 1.31, the relative viability ([2]; first compound 0.8 µM) was 1.11 and the relative viability ([2]; first compound 2.53 µM) was 1. It also gave a relative viability ([2]; first compound 8 µM) of 0.554, a relative viability ([3]; first compound 0.08 µM) of 0.761 and a relative viability ([3]; first compound 0.253 µM) of 0.775. The relative viability ([3]; first compound 0.8 µM) was 0.786, the relative viability ([3]; first compound 2.53 µM) was 0.808 and the relative viability ([3]; first compound 8 µM) was 0.852. It also gave a relative viability ([4]; first compound 0.08 µM) of 0.915, a relative viability ([4]; first compound 0.253 µM) of 1.03 and a relative viability ([4]; first compound 0.8 µM) of 0.834. It also gave a relative viability ([4]; first compound 2.53 µM) of 0.842, a relative viability ([4]; first compound 8 µM) of 0.675 and a relative viability ([5]; first compound 0.253 µM) of 0.92. For the same molecule, the relative viability ([5]; first compound 0.8 µM) was 0.956, the relative viability ([5]; first compound 2.53 µM) was 0.95 and the relative viability ([5]; first compound 8 µM) was 1. For the same molecule, the relative viability ([6]; first compound 0.08 µM) was 0.569, the relative viability ([6]; first compound 0.253 µM) was 0.582 and the relative viability ([6]; first compound 0.8 µM) was 0.729. It also gave a relative viability ([6]; first compound 2.53 µM) of 0.547, a relative viability ([6]; first compound 8 µM) of 0.519 and a relative viability ([7]; first compound 0.08 µM) of 0.847. For the same molecule, the relative viability ([7]; first compound 0.253 µM) was 1.1, the relative viability ([7]; first compound 0.8 µM) was 1.01 and the relative viability ([7]; first compound 2.53 µM) was 0.975. It also gave a relative viability ([7]; first compound 8 µM) of 0.89, a relative viability ([8]; first compound 0.08 µM) of 0.759 and a relative viability ([8]; first compound 0.253 µM) of 0.594. For the same molecule, the relative viability ([8]; first compound 0.8 µM) was 0.592, the relative viability ([8]; first compound 2.53 µM) was 0.494 and the relative viability ([8]; first compound 8 µM) was 0.766. It also gave a relative viability ([9]; first compound 0.08 µM) of 0.911, a relative viability ([9]; first compound 0.253 µM) of 0.945 and a relative viability ([9]; first compound 0.8 µM) of 0.945. The relative viability ([9]; first compound 2.53 µM) was 1.04, the relative viability ([9]; first compound 8 µM) was 0.926 and the relative viability ([10]; first compound 0.08 µM) was 0.64. It also gave a relative viability ([10]; first compound 0.253 µM) of 0.715, a relative viability ([10]; first compound 0.8 µM) of 0.606 and a relative viability ([10]; first compound 2.53 µM) of 0.602. For the same molecule, the relative viability ([10]; first compound 8 µM) was 0.535, the relative viability ([11]; first compound 0.08 µM) was 1.04 and the relative viability ([11]; first compound 0.253 µM) was 0.965. The relative viability ([11]; first compound 0.8 µM) was 1.02, the relative viability ([11]; first compound 2.53 µM) was 0.862 and the relative viability ([11]; first compound 8 µM) was 0.916. The relative viability ([12]; first compound 0.253 µM) was 0.806, the relative viability ([12]; first compound 0.8 µM) was 0.934 and the relative viability ([12]; first compound 2.53 µM) was 0.853. The relative viability ([12]; first compound 8 µM) was 0.856, the relative viability ([13]; first compound 0.08 µM) was 1.03 and the relative viability ([13]; first compound 0.253 µM) was 0.88. For the same molecule, the relative viability ([13]; first compound 0.8 µM) was 0.992, the relative viability ([13]; first compound 2.53 µM) was 0.947 and the relative viability ([13]; first compound 8 µM) was 0.832. The relative viability ([14]; first compound 0.08 µM) was 0.838, the relative viability ([14]; first compound 0.253 µM) was 0.962 and the relative viability ([14]; first compound 0.8 µM) was 0.894. For the same molecule, the relative viability ([14]; first compound 2.53 µM) was 0.912, the relative viability ([14]; first compound 8 µM) was 0.771 and the relative viability ([15]; first compound 0.08 µM) was 0.874. It also gave a relative viability ([15]; first compound 0.253 µM) of 0.661, a relative viability ([15]; first compound 0.8 µM) of 0.668 and a relative viability ([15]; first compound 2.53 µM) of 0.575. The relative viability ([15]; first compound 8 µM) was 0.836, the relative viability ([16]; first compound 0.08 µM) was 0.999 and the relative viability ([16]; first compound 0.253 µM) was 1.02. The relative viability ([16]; first compound 0.8 µM) was 1.05, the relative viability ([16]; first compound 2.53 µM) was 1.01 and the relative viability ([16]; first compound 8 µM) was 0.921. For the same molecule, the relative viability ([17]; first compound 0.253 µM) was 0.569, the relative viability ([17]; first compound 0.8 µM) was 0.599 and the relative viability ([17]; first compound 2.53 µM) was 0.754. For the same molecule, the relative viability ([17]; first compound 8 µM) was 0.711, the relative viability ([18]; first compound 0.253 µM) was 0.854 and the relative viability ([18]; first compound 0.8 µM) was 0.872. The relative viability ([18]; first compound 2.53 µM) was 0.802, the relative viability ([18]; first compound 8 µM) was 0.608 and the relative viability ([19]; first compound 0.08 µM) was 0.783. For the same molecule, the relative viability ([19]; first compound 0.253 µM) was 0.862, the relative viability ([19]; first compound 0.8 µM) was 0.763 and the relative viability ([19]; first compound 2.53 µM) was 0.74. The relative viability ([19]; first compound 8 µM) was 0.695, the relative viability ([20]; first compound 0.08 µM) was 0.856 and the relative viability ([20]; first compound 0.253 µM) was 0.751. The relative viability ([20]; first compound 0.8 µM) was 0.802, the relative viability ([20]; first compound 2.53 µM) was 0.736 and the relative viability ([20]; first compound 8 µM) was 0.677. It also gave a relative viability ([21]; first compound 0.08 µM) of 0.939, a relative viability ([21]; first compound 0.253 µM) of 0.853 and a relative viability ([21]; first compound 0.8 µM) of 1.01. For the same molecule, the relative viability ([21]; first compound 2.53 µM) was 0.979, the relative viability ([21]; first compound 8 µM) was 0.912 and the relative viability ([22]; first compound 0.08 µM) was 0.913. It also gave a relative viability ([22]; first compound 0.253 µM) of 0.91, a relative viability ([22]; first compound 0.8 µM) of 0.832 and a relative viability ([22]; first compound 2.53 µM) of 0.782. For the same molecule, the relative viability ([22]; first compound 8 µM) was 0.769.
